Results on one substance are retold here after patent US20090047742A1 (priority 2005, published 2009).

In assay [1] the test system is human GAPDH and β-actin mRNA. The assay is described as follows: Northern blot analysis of cellular mRNA in T-Rex-293 cells. Particulars: T-Rex-293 (mazF/pcDNA3) cells. In kind it is cell-based. The protocol: Northern blot analysis and real-time PCR (RT-PCR) was preformed as previously described (Zhang, Y., et al., Mol. Cell 12: 913-923 (2003); Cuconati, A., et al., Genes Dev. 17: 2922-2932 (2003)). Total RNA from tetracycline-treated (0, 24, 48 and 72 hr) or untreated (0, 24, 48 and 72 hr) T-Rex-293 (mazF/pcDNA3) and T-Rex-293 (mazF/mazE) cells for were isolated through the use of Trizol Reagent (Gibco, Carlsbad, Calif.). For Northern blot analysis, 10 μg of total RNA from each condition was subjected to formaldehyde-agarose gel electrophoresis followed by transfer onto GeneScreen Plus membrane (NEN Life Science Products, Boston, Mass.). The blot was hybridized with ^32P-labeled human GAPDH or β-actin cDNA. One hundred ng of total RNA was subjected to real time RT-PCR with the Taqman EZ-RT PCR kit (PE Applied Biosystems, Lincoln Centre Drive Foster City, Calif.) using recommended conditions provided by the vendor. Primers to analyze the level of human GAPDH mRNA were obtained from Applied Biosystems, and a probe for GAPDH was supplied with 5′ linkage to the reporter dye 2, 7-dimethoxy-4, 5-dichloro-6-carboxy-fluoroecein (JOE), and 3′ linkage to the quencher 6-carboxy-tetramethylrhodamine (TAMURA). β-actin primer sequences were 5′-[…]-3′ and 5′-[…]-3′. β-actin probe sequence was FAM-5′-[…] TTCC-3′-TAMURA. Reactions were carried out in triplicate and the relative amount of human GAPDH and β-actin mRNA was calculated from the difference in fluorescence signal in the 24-, 48- and 72-hr samples compared with the corresponding 0 hr sample.
To assess cellular mRNA levels, total RNA was isolated from whole cells of Tet-treated or -untreated T-Rex-293 cells and subjected to Northern blot analysis using human GAPDH and β-actin cDNA probes. […] Labeled single-stranded DNA fragments complementary to the specific mRNA being sought then are hybridized to the bound mRNA and the label detected by suitable means. […]

The subject of assay [2] is human GAPDH and β-actin mRNA. The assay is described as follows: real-time RT-PCR quantification of mRNA levels in T-Rex-293 cells. In kind it is cell-based. The following applies: MazF induction for 72 hours, T-Rex-293 cells. How it is done:
Northern blot analysis and real-time PCR (RT-PCR) was preformed as previously described (Zhang, Y., et al., Mol. Cell 12: 913-923 (2003); Cuconati, A., et al., Genes Dev. 17: 2922-2932 (2003)). Total RNA from tetracycline-treated (0, 24, 48 and 72 hr) or untreated (0, 24, 48 and 72 hr) T-Rex-293 (mazF/pcDNA3) and T-Rex-293 (mazF/mazE) cells for were isolated through the use of Trizol Reagent (Gibco, Carlsbad, Calif.). For Northern blot analysis, 10 μg of total RNA from each condition was subjected to formaldehyde-agarose gel electrophoresis followed by transfer onto GeneScreen Plus membrane (NEN Life Science Products, Boston, Mass.). The blot was hybridized with ^32P-labeled human GAPDH or β-actin cDNA. One hundred ng of total RNA was subjected to real time RT-PCR with the Taqman EZ-RT PCR kit (PE Applied Biosystems, Lincoln Centre Drive Foster City, Calif.) using recommended conditions provided by the vendor. […] Reactions were carried out in triplicate and the relative amount of human GAPDH and β-actin mRNA was calculated from the difference in fluorescence signal in the 24-, 48- and 72-hr samples compared with the corresponding 0 hr sample.

For assay [3], the system named is T-Rex-293 cells. The assay is described as follows: phase contrast morphology / cytopathic effect. Format: cell-based, human. Particulars: T-Rex-293, 72 hours post-induction of MazF. For orientation: Damage to the host cells serves as the signal in cytopathic effect assays.
Assay [4] relates to T-Rex-293 cells. The assay is described as follows: trypan blue exclusion viability. Particulars: T-Rex-293 (mazF/pcDNA3), MazF expression induced. Format: cell-based, human. The protocol:
The viability of T-Rex-293 cells was determined by trypan blue exclusion as previously described (Degenhardt, K., et al., J. Biol. Chem. 277: 14127-14134 (2002)). T-Rex-293 (mazF/pcDNA3) and T-Rex-293 (mazF/mazE) cells were cultured for 24 hr before tetracycline treatment and then incubated for 0, 24, 48 and 72 hr at 37° C. in the presence or absence of 10 μg/ml tetracycline. After treatment, cells were collected by centrifugation of the supernatant plus adherent cells, which were harvested by trypsinization. Cells were resuspended in 500 μl of fresh medium containing 0.1% trypan blue solution (Sigma, St. Louis, Mo.) and then counted on a hemocytometer to assess the number of dead blue cells and the total number of cells counted. As a control for apoptotic cell death, T-Rex-293 (mazF/mazE) cells were treated with 1 μM staurosporine (Sigma, St. Louis, Mo.) for same time periods concurrently with tetracycline treatment.

The subject of the next assay is iBMK cells. The assay is described as follows: β-galactosidase assay, viability of iBMK cells co-expressing LacZ. Format: cell-based, mouse. How it is done: β-galactosidase assays to determine the viability of iBMK cells co-expressing LacZ and MazF were performed as previously described (Han, J., Sabbatini, P., and White, E. Mol. Cell. Biol. 16: 5857-5864 (1996)). W2, D3, X2 and K1 co-transfected with pcDNA6/His/LacZ and pcDNA4/TO/mazF or pcDNA3 for 48 hr were fixed in 1% glutaraldehyde and then stained with 0.2% X-gal solution at 37° C. for 24 hr. β-Galactosidase positive blue cells and the total number of cells (approximately 200 cells) were independently counted on a 6-cm diameter dish.

Regarding “MazF: E. coli toxin; sequence specific endoribonuclease (mRNA interferase) cleaving single-stranded RNAs at ACA sequences; expressed from plasmid pcDNA4/TO/mazF”, the “levels of both GAPDH and β-actin mRNAs (Northern blot)” value in assay [1] (48 hours post-induction of MazF) is given as “almost completely lost”; in assay [1] (after 24 hours of MazF induction by Tet), “dramatically decreased”. In assay [2], the “decrease of both GAPDH and β-actin mRNAs (real-time RT-PCR)” value is reported as over 90%. For the same substance, in the assay with T-Rex-293 cells [3], the “number of attached cells” value was “dramatically decreased”. For the same substance, the “cell viability (trypan blue exclusion)” value in the assay on T-Rex-293 cells [4] is recorded as “dropped strikingly”. The β-galactosidase expression entry in the assay on iBMK cells (D3 (bax−/− bak−/−) iBMK cells expressing MazF) is “little effect”. Also, the “response to MazF (β-galactosidase assay)” value in the assay on iBMK cells (K1 (bak−/−) iBMK cells) is given as “preferentially resistant”. In the assay on iBMK cells (W2 iBMK cells transiently co-expressing LacZ and MazF, 48 hours post-transfection), the β-galactosidase positive cells entry is reported as “significant decrease”. Besides, the “number of β-galactosidase positive cells” value in the assay with iBMK cells (X2 (bax−/−) iBMK cells expressing MazF) is given as “significantly decreased”; in the assay with iBMK cells (puma−/−, bim−/−, noxa−/− iBMK cells transiently expressing MazF), “significantly decreased”. The “response to MazF-induced cell death (β-galactosidase assay)” value in the assay with iBMK cells (nbk/bik−/− iBMK cells) was “preferentially resistant”.
